This is an account of results in patent US20220125886A1 (The Board of Trustees of the Leland Stanford Junior …, priority 2019, published 2022).

Entries after “also recorded” stand apart in the source; their conditions may differ.

The conditions of data set [1]: according to Webber et al., agitation; cited from earlier work.
The conditions of data set [2]: reported previously, used for the fit; cited from earlier work.
The conditions of data set [3]: given for comparison; cited from earlier work.
A short description of data set [4]: Diffusion-ordered NMR spectroscopy (DOSY) of protein/CB[7]-PEG complexes. Conditions: for diffusion rate D: DOSY, protein 6 mg mL^−1, 200 mM phosphate buffer pH 7, D2O, zinc removed with EDTA; for hydrodynamic radius (Rh): approximated from D by the Stokes-Einstein relationship. It is filed as physicochemical. The source says: A Varian Inova 600 MHz NMR instrument was used to acquire the data. Magnetic field strengths ranging from 2 to 57 G cm^−1. The DOSY time and gradient pulse were set at 132 ms (Δ) and 3 ms (δ) respectively. All NMR data were processed using MestReNova 11.0.4 software.

The nature of data set [5]: Circular dichroism of protein secondary structure when bound to CB[7]-PEG. The conditions noted are these: PBS pH 7.4, with CB[7]-PEG, with or without EDTA. Format: physicochemical. Here is the method:
After mixing, samples were left to equilibrate for 15 minutes at room temperature. […] circular dichroism spectroscopy was performed at 20° C. with a J-815 CD Spectropolarimeter (Jasco Corporation) over a wavelength range of 185-250 nm using a 0.1 cm pathlength cell.

The nature of data set [6]: In vitro stability: aggregation under stressed conditions by change in transmittance at 540 nm. Format: physicochemical. As for the experimental part:
These aggregates are large and scatter light, allowing the degree of aggregation to be evaluated by measuring the change in transmittance over time. […] Data shown in FIGS. 2A-2E are the average transmittance trace for n=3 samples per group.
The plate was immediately placed into an plate reader and incubated with continuous shaking 37° C. Absorbance readings were taken every 10 minutes at 540 nm for 100 h (BioTek SynergyH1 microplate reader).
Controls included: (i) NOVOLOG®, (ii) zinc-free NOVOLOG®, (iii) pramlintide (sodium acetate buffer at pH=4), (iv) pramlintide (PBS at pH=7), (v) NOVOLOG®+pramlintide (PBS at pH=7.4).

On to “native insulin: recombinant human insulin of Webber et al.”, for which the “aggregation time (tA), 10% reduction in transmittance” value in data set [1] is 13.6 ± 0.2 h.

Turning to `CN(C)c1ccc2cc3ccc(N(C)C)cc3nc2c1` [AO, Acridine Orange], the “CB[7]⋅AO equilibrium constant (Keq)” value in data set [2] was 200000 M⁻¹.

For “insulin hexamer: hexameric association state of insulin in standard zinc formulations”, in data set [3], the hydrodynamic radius entry is given as “approximately 2.8 nm”.

On to `CC[C@H](C)[C@H](NC(=O)[C@@H]1CCCN1C(=O)CNC(=O)[C@H](Cc1ccccc1)NC(=O)[C@H](CC(N)=O)NC(=O)[C@H](CC(N)=O)NC(=O)[C@H](CO)NC(=O)[C@H](CO)NC(=O)[C@H](Cc1c[nH]cn1)NC(=O)[C@@H](NC(=O)[C@H](CC(C)C)NC(=O)[C@H](Cc1ccccc1)NC(=O)[C@H](CC(N)=O)NC(=O)[C@H](C)NC(=O)[C@H](CC(C)C)NC(=O)[C@H](CCCNC(=N)N)NC(=O)[C@H](CCC(N)=O)NC(=O)[C@@H](NC(=O)[C@H](C)NC(=O)[C@@H]1CSSC[C@H](NC(=O)[C@@H](N)CCCCN)C(=O)N[C@@H](CC(N)=O)C(=O)N[C@@H]([C@@H](C)O)C(=O)N[C@@H](C)C(=O)N[C@@H]([C@@H](C)O)C(=O)N1)[C@@H](C)O)C(C)C)C(=O)N[C@@H](CC(C)C)C(=O)N1CCC[C@H]1C(=O)N1CCC[C@H]1C(=O)N[C@H](C(=O)N[C@@H](CC(N)=O)C(=O)N[C@H](C(=O)NCC(=O)N[C@@H](CO)C(=O)N[C@@H](CC(N)=O)C(=O)N[C@H](C(=O)N[C@@H](Cc1ccc(O)cc1)C(N)=O)[C@@H](C)O)C(C)C)[C@@H](C)O` [pramlintide], for which, in data set [4], the “diffusion rate D” value was ~2×10^−10 m^2 s^−1 and the “hydrodynamic radius (Rh)” value is listed as 1.2 nm. Also, the “ratio of diffusion rates, pramlintide alone to insulin in a standard formulation” value in data set [4] (standard formulation) was around 2.3. Further, the “effect of CB[7]-PEG binding on protein (secondary) structure” value in data set [5] is given as “did not affect protein structure; also recorded: no difference in protein secondary structure was observed”. For the same compound, the time stable result in data set [6] (pH=4 sodium acetate buffer) was “over 100 hours”. Besides, in data set [6] (pH=7.4 in PBS, aggregation measured as ~5% change in transmittance at 540 nm), the “time to aggregation / time stable” value came to 15 ± 4 h.

Take insulin aspart: in data set [4], the “diffusion rate D” value is reported as ~1.2×10^−10 m^2 s^−1 and the “hydrodynamic radius (Rh)” value is on record as around 2.2 nm. The “effect of CB[7]-PEG binding on protein (secondary) structure” value in data set [5] is reported as “did not affect protein structure; also recorded: did not alter the secondary structure”.
